Test results from paper PMC10237672, “Design and synthesis of novel anti-urease imidazothiazole derivatives with promising antibacterial activity against Helicobacter pylori” (PLOS ONE, 2023).
Converted amounts (≈) assume the structure as drawn. “Also recorded” adds a separate entry of the source. Where two headings read alike, the source gives them in different places.

Experiments:
H. pylori [1] = assay: IC50 against H. pylori, micro broth dilution test; type: cell-based, Helicobacter pylori; details: H. pylori ATCC 43504, micro broth dilution, 72 h, OD 600 nm, read-out: IC50 value against H. pylori ± SEM
E. coli [2] = assay: IC50 against E. coli (urease negative), micro broth dilution method; type: cell-based, Escherichia coli; details: E. coli ATCC 25922, micro broth dilution
Protocol: (§1) The H. pylori reference strain ATCC 43504 (DSM 21031) was purchased from the German collection of microorganisms and cell cultures, GmbH (DSMZ; Germany). H. pylori was grown on Brucella agar plates (Sigma, USA) supplemented with 10% horse serum (Sigma, USA) for 72 h at 37 °C under 98% humidity and microaerophilic conditions (5% O2, 10% CO2, and 85% N2) using microaerophilic CampyGen 2.5 L pack (Oxoid, thermo scientific, UK) and anaerobic jar (Biomerieux, France). H. pylori culture was inspected after 3 to 5 days. The E. coli reference strain ATCC 25922 was purchased from the American Type Culture Collection (ATCC, Manassas, VA, USA). E. coli was grown on nutrient agar plates (Sigma, USA) for 24 h at 37 °C under aerobic conditions. Bacterial load was adjusted using a DensiCHEK PLUS device (Biomerieux, France). A regular gram stain (Biomerieux, France) was performed to confirm the identity and the morphology of H. pylori and E. coli as well as to confirm the absence of any contamination. Furthermore, a regular spotting checkup was also performed behind the micro broth dilution testing followed by a gram stain to confirm the identity of the bacteria and the absence of any potential contamination.
(§2) For MIC, the agar dilution method was performed as per the CLSI guidelines. 5 μL of the H. pylori suspension (2.0 McFarland) was plated on the Mueller–Hinton agar (Sigma, USA) supplemented with 10% horse serum including various concentrations of compounds 1a-1j and 2a-2j (0.8 mM, 0.4 mM, 0.2 mM, 0.1 mM, 0.05 mM, 0.025 mM, 0.0125 mM, and 0.006 mM). […] For the micro broth dilution test, compounds 1a-1j and 2a-2j were prepared by 2-fold serial dilution from a concentration of 0.8 mM to 0.006 mM and added to an equal H. pylori suspension of 1.0 McFarland in Mueller–Hinton broth (Sigma, USA) for 72 h. Final optical density of the bacterial suspension was measured by spectrophotometry using Synergy H1 microplate reader (BioTek, USA) at 600 nm. The half maximal inhibitory concentration (IC50) was calculated using Graph Pad Prism 8.02 for windows (Graph Pad Inc., La Jolla, CA, USA). All the tested derivatives compounds were dissolved in dimethyl sulfoxide (DMSO, Sigma, USA). […] Amoxicillin (Sigma, USA) (10 μg/mL and 0.007 μg/mL) and (12 μg/mL and 3 μg/mL) was used as a control antibiotic to confirm the agar dilution protocol for H. pylori and E. coli, respectively. Acetohydroxamic acid (AHA, Sigma, CAS number: 546-88-3) was used as a positive anti-urease control. All antimicrobial susceptibility experiments were repeated twice.

E. coli [3] = assay: MIC against E. coli (urease negative), agar dilution method; type: cell-based, Escherichia coli; details: for MIC: Escherichia coli, ATCC25922, read-out: MIC ± SEM against E. coli (Urease-)
Protocol: as §1, §2

Jack bean urease = target: T1, Jack bean urease (Canavalia ensiformis, UniProt P07374); assay: biochemical; type: biochemical
T1 construct: purchased Sigma Aldrich
T1 sequence (P07374 whole entry, looked up): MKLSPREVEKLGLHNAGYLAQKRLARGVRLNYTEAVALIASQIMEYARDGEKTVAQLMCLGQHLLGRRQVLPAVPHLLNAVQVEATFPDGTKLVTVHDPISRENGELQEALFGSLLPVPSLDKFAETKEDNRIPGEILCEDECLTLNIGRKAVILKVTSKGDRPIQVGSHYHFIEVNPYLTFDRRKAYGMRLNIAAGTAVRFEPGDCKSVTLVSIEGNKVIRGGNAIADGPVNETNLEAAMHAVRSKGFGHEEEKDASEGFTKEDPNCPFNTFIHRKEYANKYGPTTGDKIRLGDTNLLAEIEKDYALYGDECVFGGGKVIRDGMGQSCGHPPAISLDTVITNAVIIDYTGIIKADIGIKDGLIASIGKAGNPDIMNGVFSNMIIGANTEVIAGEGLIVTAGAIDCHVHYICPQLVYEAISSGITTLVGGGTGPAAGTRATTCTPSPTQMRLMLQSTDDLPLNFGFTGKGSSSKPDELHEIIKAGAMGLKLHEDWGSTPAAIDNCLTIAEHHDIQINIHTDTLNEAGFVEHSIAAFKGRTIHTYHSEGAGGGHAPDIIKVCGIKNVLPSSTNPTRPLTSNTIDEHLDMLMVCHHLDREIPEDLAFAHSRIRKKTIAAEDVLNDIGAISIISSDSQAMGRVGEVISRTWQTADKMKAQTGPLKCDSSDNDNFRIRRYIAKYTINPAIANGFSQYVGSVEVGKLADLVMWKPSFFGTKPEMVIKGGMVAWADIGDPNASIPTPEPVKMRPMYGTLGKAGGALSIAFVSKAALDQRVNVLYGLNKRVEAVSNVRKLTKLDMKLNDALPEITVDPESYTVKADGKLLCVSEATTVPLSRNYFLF
Protocol: Reaction mixture comprising 40 μL of buffer (K2HPO4: 10 mmol/L, urea: 100 mmol/L, […]: 10 mmol/L, EDTA: 1 /L mmol, pH = 8.2) and 5 U/mL enzyme (10 μL) were pre-incubated with 10 μL of synthesized compounds (1 mM) and substrate urea (1 mM) were incubated at room temperature in 96 well plate for half an hour. After the incubation at room temperature, absorbance was taken at specific wavelength (630 nm) employing a microplate reader (Bio-Tek, USA) with R1 and R2 reagents in each well. The reactions were measured in triplicate fashion. To calculate the inhibition percentage following equation was used.
Percentage inhibition = 100 –[tested compound/control compound] × 100.

H. pylori [4] = assay: MIC against H. pylori, agar dilution method; type: cell-based, Helicobacter pylori; details: for MIC: Helicobacter pylori, ATCC43504, read-out: MIC value against H. pylori ± SEM; for antibacterial activity against H. pylori (in words): compared within the series and with acetohydroxamic acid
AGS gastric cells = assay: Cytotoxicity MTT assay against AGS gastric cells; type: cell-based, Human; details: for IC50: MTT, 48 h treatment, read-out: IC50 value against AGS cells ± SEM; for Selectivity index (SI): toward H. pylori vis-à-vis AGS cells (IC50 values)
Protocol: Human gastric adenocarcinoma AGS cells (ATCC CRL-1739) were purchased from the German Cell Lines Service (CLS, Germany) and cultured in RPMI-1640 medium (Sigma, USA) supplemented with 10% fetal bovine serum (FBS, Sigma, USA) and streptomycin-penicillin (100 μg/mL and 100 IU/mL) (Sigma, USA). Cells were incubated at 37 °C in a humidified atmosphere with 5% CO2 until 80–90% confluency.
The (4, 5-dimethythiazol-2-yl) -2, 5-diphenyltetrazolium bromide (MTT, Sigma, USA) assay was used to assess the cytotoxicity of the five most significant compounds. AGS cells (5×10^3/well) were seeded in 96-well plates for 24 h and treated with various concentrations (0.8 mM, 0.4 mM, 0.2 mM, 0.1 mM, 0.05 mM, 0.025 mM, 0.0125 mM, and 0.006 mM) of the five most significant anti-urease imidazothiazole derivatives compounds (compound 1a, 1d, 1h, 2d, and 2f). After 48 h treatment, 100 μL of MTT solution (50 μg/mL) was added to each well, and the cells were incubated for additional 2 h at 37 °C. The solubilization of MTT crystals was accomplished by adding 100 μL of DMSO followed by 10 min of incubation. The plates were shaken for 5 min to dissolve the MTT formazan crystals. The optical density of each well was determined using a Synergy H1 microplate reader (Biotek, USA) at a wavelength of 570 nm. The IC50 of the tested compounds was calculated using GraphPad Prism 8.0.2 for windows (GraphPad Inc., La Jolla, CA, USA) from two repeated experiments.

Caco-2 A-B permeability = type: in vitro ADME; details: human, pH 6.5–7.4, test concentration = MIC against H. pylori (19-50 μM), reference drugs 10 μM
Protocol: (§3) The apparent permeability coefficient (Papp) of the test compound was calculated as follows: Papp(cm/s)=VR*CR,end/Δt*1/A*(CD,mid‐CR,mid) where VR is the volume of the receiver chamber. CR,end is the concentration of the test compound in the receiver chamber at the end time point, Δt is the incubation time and A is the surface area of the cell monolayer. CD,mid is the calculated mid-point concentration of the test compound in the donor side, which is the mean value of the donor concentration at time 0 minute and the donor concentration at the end time point. CR,mid is the mid-point concentration of the test compound in the receiver side, which is one half of the receiver concentration at the end time point. Concentrations of the test compound were expressed as peak areas of the test compound.
(§4) The recovery of the test compound was calculated as follows: Recovery(%)=VD*CD,end+VR*CR,end/VD*CD0*100 where VD and VR are the volumes of the donor and receiver chambers, respectively. CD,end is the concentration of the test compound in the donor sample at the end time point. CR,end is the concentration of the test compound in the receiver sample at the end time point. CD0 is the concentration of the test compound in the donor sample at time zero. Concentrations of the test compound are expressed as peak areas of the test compound.
(§5) Fluorescein was used as the cell monolayer integrity marker. Fluorescein permeability assessment (in the A-B direction at pH 7.4 on both sides) was executed after the permeability assay for the test compound.

Caco-2 cells = assay: Caco-2 A-B permeability; type: in vitro ADME
Protocol: as §3, §4, §5

[5] = E. coli ATCC 25922, agar dilution
[6] = H. pylori ATCC 43504, agar dilution

Row | Compound | IC50 (H. pylori [1]; Helicobacter pylori, ATCC43504) [µM] | IC50 ± SEM against E. coli (Urease-) (E. coli [2]) | MIC (E. coli [3]; [5]) [µM] | IC50 (Jack bean urease) [µM] | MIC (H. pylori [4]; [6]) [µM] | antibacterial activity against H. pylori (in words) (H. pylori [4]) | IC50 (AGS gastric cells; Homo sapiens, AGS) [µM] | Selectivity index (SI) (AGS gastric cells) | melting point [°C] | Papp (Caco-2 A-B permeability) [×10⁻⁶ cm/s] | recovery (Caco-2 A-B permeability) [%] | activity against urease-negative E. coli (in words) (E. coli [3]; E. coli, up to 0.8 mM) | Caco-2 permeability (in words) (Caco-2 cells) | IC50 (H. pylori [1]) [µM] | IC50 (E. coli [2]; read-out: IC50 ± SEM against E. coli (Urease-)) [µM] | MIC ± SEM against E. coli (Urease-) (E. coli [3]; [5]) [µM] | MIC value against H. pylori ± SEM (H. pylori [4]; [6]) [µM] | IC50 (AGS gastric cells) [µM]
1 | CS(=O)(=O)Oc1cccc(-c2nc3sccn3c2-c2ccccc2)c1 [Compound 1a, 3-(5-Phenylimidazo[2,1-b]thiazol-6-yl)phenyl methanesulfonate] | 23 ± 9 | No effect | > 800 | 4.1 ± 0.03 | 19 ± 4 | strongest antibacterial activity | 71 ± 17 | 3.09 | 105 to 108 | 18.6 ± 0.79 | 34.4 |  |  |  |  |  |  | 
2 | O=S(=O)(Oc1cccc(-c2nc3sccn3c2-c2ccccc2)c1)C1CCCCC1 [Compound 1d, 3-(5-Phenylimidazo[2,1-b]thiazol-6-yl)phenyl cyclohexane-1-sulfonate] | 20 ± 3 | No effect | > 800 | 3.09 ± 0.07 | 31 ± 11 (≈ 13.6 µg/mL) | strongest antibacterial activity | 121 ± 44 | 6.05 | 118 to 120 | 0.04 ± 0.01 | 63 | did not show activity | lowest permeability; also recorded: poor Caco-2 A-B permeability; also recorded: low permeability |  |  |  |  | 
3 | NS(=O)(=O)Oc1cccc(-c2nc3sccn3c2-c2ccccc2)c1 [Compound 1h, 3-(5-Phenylimidazo[2,1-b]thiazol-6-yl)phenyl sulfamate] | 28 ± 1 | No effect | > 800 | 2.96 ± 0.02 | 50 (≈ 18.6 µg/mL) | strongest antibacterial activity | 145 ± 45 | 5.18 | 173 to 175 | 16.9 ± 0.87 | 32.6 |  |  |  |  |  |  | 
4 | CS(=O)(=O)c1cccc(-c2c(-c3cccc(OS(=O)(=O)c4ccc(F)cc4)c3)nc3sccn23)c1 [Compound 2f, 3-(5-(3-(Methylsulfonyl)phenyl)imidazo[2,1-b]thiazol-6-yl)phenyl 4-fluorobenzenesulfonate] | 23 ± 8 | No effect | > 800 | 7.19 ± 0.09 | 38 ± 13 (≈ 20.1 µg/mL) | strongest antibacterial activity | 45 ± 5 | 1.95 |  | 1.98 ± 0.23 | 71.8 |  | lowest permeability; also recorded: low permeability |  |  |  |  | 
5 | CC(=O)NO [Acetohydroxamic acid (AHA), Acetohydroxamic acid, reference compound] |  |  |  |  |  |  |  |  |  |  |  |  |  | 7380 ± 320 | 39900 ± 1780 | 100000 | 12500 ± 0 (≈ 938 µg/mL) | 5900 ± 300
6 | CS(=O)(=O)c1cccc(-c2c(-c3cccc(OS(=O)(=O)C4CCCCC4)c3)nc3sccn23)c1 [Compound 2d, 3-(5-(3-(Methylsulfonyl)phenyl)imidazo[2,1-b]thiazol-6-yl)phenyl cyclohexane-1-sulfonate] | 15 ± 3 | No effect | > 800 | 4.46 ± 0.12 | 22 ± 4 (≈ 11.4 µg/mL) | strongest antibacterial activity | 30 ± 11 | 2.0 | 142 to 144 | 0.07 ± 0.02 | 73.5 |  | lowest permeability; also recorded: low permeability |  |  |  |  | 
